Experimental data reported in patent US20230089715A1, “MASITINIB FOR THE TREATMENT OF A MULTIPLE SCLEROSIS PATIENT SUBPOPULATION” (AB SCIENCE, priority 2020, published 2023).

Test system: patients with progressive multiple sclerosis (PPMS or non-active SPMS)
Experiment: Study AB07002: randomized, double-blind, placebo-controlled phase 3 study, overall EDSS change from baseline
Type: in vivo, human
Design: key to LSM EDSS, MAS (overall EDSS change from baseline): LS mean EDSS change from baseline; positive value = worsening
Conditions: 4.5 mg/kg/day oral, 96 weeks
Method: An international, multicenter, randomized, double-blind, placebo-controlled phase 3 study was conducted with the objective to evaluate oral masitinib at a dose of 4.5 mg/kg/day as a treatment for progressive multiple sclerosis (progressive MS), as defined hereinabove. […] Eligible patients were treated for 96 weeks with masitinib at a dose of 4.5 mg/kg/day (mg per kilo body weight per day) or with placebo. Primary endpoint was overall EDSS change from baseline using a repeated analysis of covariance model (i.e., ANCOVA GEE model on all measurements from week 12 (W12) to week 96 (W96)). Results are expressed as least-squares means difference, illustrating the progression of EDSS score, that is to say the change over time in the EDSS score or in other words the difference between the EDSS score at baseline and the EDSS score after treatment with masitinib or with placebo (a positive value indicates a worsening of the patient). Treatment-effect is reported as between-group difference (ΔLSM, negative value indicates a beneficial effect of treatment with masitinib as compared to treatment with placebo). […] Patients suffering from a disease other than MS that would better explain their neurological clinical signs and symptoms and/or lesions observed with magnetic resonance imaging (“MRI lesions”) were excluded. Subpopulation analyses of primary endpoint data from study AB07002 assessed the impact of the clinical markers ‘time from onset’ with respect to baseline (i.e., date of treatment initiation), derived from the estimated date of first clinical MS symptom(s), or ‘time from diagnosis’ with respect to baseline (i.e., date of treatment initiation), on masitinib efficacy in patients with progressive MS (see Example 3). ‘Time from onset’ is derived from the date (year/month/day, year/month, or year) of first clinical symptom(s) with duration calculated from date of treatment initiation. The date of first symptom(s) is typically determined retrospectively from medical history, for example from medical records and patient/caregiver historical recall of MS related symptoms following a clinically definite diagnosis. Imputation of missing data can be handled using various methods, one example of which is the following approach: if the information regarding day is missing, the day is considered to be the last day of the month; if the day and month are missing, the day is considered to be the last day of June. ‘Time from diagnosis’ of progressive MS, is ideally based on a clinically definite diagnosis of progressive MS as determined by a MS specialist neurologist. In practice it is derived from the date (year/month/day, year/month, or year) of first clinically definite diagnosis of progressive MS, i.e., PPMS or non-active SPMS, with duration calculated from date of treatment initiation. At the time of MS diagnosis, a provisional disease course should be specified (relapsing-remitting, primary progressive, or secondary progressive) and whether the course is active or not (non-active) and progressive or not based on the previous year's history. The phenotype should be periodically re-evaluated based on accumulated information. Comparison of subpopulation analyses with respect to the corresponding full analysis dataset (see Table 4) is reported as relative difference in ΔEDSS (R %). A large positive R % value indicates a subpopulation that receives greater benefit from masitinib treatment, while a negative R % value indicates a diminished treatment-effect or lack of discernable treatment-effect in the subpopulation.

[1] = PPMS, T(diag) > 2 Y and T(onset) > 5 Y
[2] = PPMS, complement T(diag) ≤ 2 Y or T(onset) ≤ 5 Y
[3] = Progressive MS, T(diag) > 2 Y and T(onset) > 5 Y

For `Cc1ccc(NC(=O)c2ccc(CN3CCN(C)CC3)cc2)cc1Nc1nc(-c2cccnc2)cs1` [masitinib, 4-(4-methylpiperazin-1-ylmethyl)-N-[4-methyl-3-(4-pyridin-3ylthiazol-2-ylamino)phenyl]benzamide], the “LSM EDSS, MAS (overall EDSS change from baseline)” value (PPMS, T(diag) > 1 Y) was −0.004, the “R % (relative difference in ΔEDSS with respect to full analysis dataset)” value (PPMS, T(diag) > 1 Y) was 31% and the “ΔEDSS (between group difference, treatment-effect vs placebo)” value (PPMS, T(diag) > 1 Y) was −0.174. For the same molecule, the “LSM EDSS, MAS (overall EDSS change from baseline)” value [1] was −0.076, the “ΔEDSS (between group difference, treatment-effect vs placebo)” value [1] was −0.283 and the “R % (relative difference in ΔEDSS with respect to full analysis dataset)” value (PPMS, T(diag) > 2 Y and T(onset) > 5 Y, 4.5 mg/kg/day) was 113%. The “LSM EDSS, MAS (overall EDSS change from baseline)” value (PPMS, T(diag) > 2 Y) was −0.070, the “ΔEDSS (between group difference, treatment-effect vs placebo)” value (PPMS, T(diag) > 2 Y) was −0.246 and the “R % (relative difference in ΔEDSS with respect to full analysis dataset)” value (PPMS, T(diag) > 2 Y, 4.5 mg/kg/day) was 85%. For the same molecule, the “LSM EDSS, MAS (overall EDSS change from baseline)” value (PPMS, T(diag) > 3 Y) was −0.099, the “ΔEDSS (between group difference, treatment-effect vs placebo)” value (PPMS, T(diag) > 3 Y) was −0.211 and the “R % (relative difference in ΔEDSS with respect to full analysis dataset)” value (PPMS, T(diag) > 3 Y, 4.5 mg/kg/day) was 59%. For the same molecule, the “LSM EDSS, MAS (overall EDSS change from baseline)” value (PPMS, T(diag) > 4 Y) was 0.097, the “R % (relative difference in ΔEDSS with respect to full analysis dataset)” value (PPMS, T(diag) > 4 Y) was 25% and the “ΔEDSS (between group difference, treatment-effect vs placebo)” value (PPMS, T(diag) > 4 Y) was −0.166. The “LSM EDSS, MAS (overall EDSS change from baseline)” value (PPMS, T(diag) ≤ 1 Y) was −0.097, the “ΔEDSS (between group difference, treatment-effect vs placebo)” value (PPMS, T(diag) ≤ 1 Y) was 0.137 and the “LSM EDSS, MAS (overall EDSS change from baseline)” value (PPMS, T(diag) ≤ 2 Y) was 0.190. The “LSM EDSS, MAS (overall EDSS change from baseline)” value (PPMS, T(diag) ≤ 3 Y) was 0.070, the “ΔEDSS (between group difference, treatment-effect vs placebo)” value (PPMS, T(diag) ≤ 3 Y) was 0.009 and the “LSM EDSS, MAS (overall EDSS change from baseline)” value (PPMS, T(diag) ≤ 4 Y) was 0.099. For the same molecule, the “ΔEDSS (between group difference, treatment-effect vs placebo)” value (PPMS, T(diag) ≤ 4 Y) was −0.089, the “LSM EDSS, MAS (overall EDSS change from baseline)” value (PPMS, T(onset) > 1 Y) was 0.040 and the “R % (relative difference in ΔEDSS with respect to full analysis dataset)” value (PPMS, T(onset) > 1 Y) was −6%. For the same molecule, the “ΔEDSS (between group difference, treatment-effect vs placebo)” value (PPMS, T(onset) > 1 Y) was −0.125, the “LSM EDSS, MAS (overall EDSS change from baseline)” value (PPMS, T(onset) > 2 Y) was 0.026 and the “R % (relative difference in ΔEDSS with respect to full analysis dataset)” value (PPMS, T(onset) > 2 Y) was 5%. The “ΔEDSS (between group difference, treatment-effect vs placebo)” value (PPMS, T(onset) > 2 Y) was −0.139, the “LSM EDSS, MAS (overall EDSS change from baseline)” value (PPMS, T(onset) > 3 Y) was 0.021 and the “R % (relative difference in ΔEDSS with respect to full analysis dataset)” value (PPMS, T(onset) > 3 Y) was 31%. For the same molecule, the “ΔEDSS (between group difference, treatment-effect vs placebo)” value (PPMS, T(onset) > 3 Y) was −0.174, the “LSM EDSS, MAS (overall EDSS change from baseline)” value (PPMS, T(onset) > 4 Y) was 0.028 and the “R % (relative difference in ΔEDSS with respect to full analysis dataset)” value (PPMS, T(onset) > 4 Y) was 22%. For the same molecule, the “ΔEDSS (between group difference, treatment-effect vs placebo)” value (PPMS, T(onset) > 4 Y) was −0.162, the “LSM EDSS, MAS (overall EDSS change from baseline)” value (PPMS, T(onset) > 5 Y) was 0.029 and the “ΔEDSS (between group difference, treatment-effect vs placebo)” value (PPMS, T(onset) > 5 Y) was −0.214. The “R % (relative difference in ΔEDSS with respect to full analysis dataset)” value (PPMS, T(onset) > 5 Y, 4.5 mg/kg/day) was 61%, the “LSM EDSS, MAS (overall EDSS change from baseline)” value (PPMS, T(onset) ≤ 3 Y) was 0.111 and the “ΔEDSS (between group difference, treatment-effect vs placebo)” value (PPMS, T(onset) ≤ 3 Y) was 0.349. The “LSM EDSS, MAS (overall EDSS change from baseline)” value (PPMS, T(onset) ≤ 4 Y) was −0.082, the “ΔEDSS (between group difference, treatment-effect vs placebo)” value (PPMS, T(onset) ≤ 4 Y) was 0.051 and the “LSM EDSS, MAS (overall EDSS change from baseline)” value (PPMS, T(onset) ≤ 5 Y) was 0.314. The “LSM EDSS, MAS (overall EDSS change from baseline)” value [2] was 0.180, the “ΔEDSS (between group difference, treatment-effect vs placebo)” value [2] was 0.118 and the “LSM EDSS, MAS (overall EDSS change from baseline)” value (PPMS, full analysis dataset) was 0.030. For the same molecule, the “ΔEDSS (between group difference, treatment-effect vs placebo)” value (PPMS, full analysis dataset, 4.5 mg/kg/day) was −0.133, the “ΔEDSS (between group difference, treatment-effect vs placebo)” value (PPMS, full analysis dataset, listed as Masitinib, 4.5 mg/kg/day) was “non-significant trend” and the “LSM EDSS, MAS (overall EDSS change from baseline)” value (Progressive MS, T(diag) > 1 Y) was −0.012. The “R % (relative difference in ΔEDSS with respect to full analysis dataset)” value (Progressive MS, T(diag) > 1 Y) was 10%, the “ΔEDSS (between group difference, treatment-effect vs placebo)” value (Progressive MS, T(diag) > 1 Y) was −0.109 and the “LSM EDSS, MAS (overall EDSS change from baseline)” value [3] was −0.057. The “ΔEDSS (between group difference, treatment-effect vs placebo)” value [3] was −0.162, the “R % (relative difference in ΔEDSS with respect to full analysis dataset)” value (Progressive MS, T(diag) > 2 Y and T(onset) > 5 Y, 4.5 mg/kg/day) was 64% and the “LSM EDSS, MAS (overall EDSS change from baseline)” value (Progressive MS, T(diag) > 2 Y) was −0.029. For the same molecule, the “ΔEDSS (between group difference, treatment-effect vs placebo)” value (Progressive MS, T(diag) > 2 Y) was −0.133, the “R % (relative difference in ΔEDSS with respect to full analysis dataset)” value (Progressive MS, T(diag) > 2 Y, 4.5 mg/kg/day) was 34% and the “LSM EDSS, MAS (overall EDSS change from baseline)” value (Progressive MS, T(diag) > 3 Y) was −0.068. For the same molecule, the “R % (relative difference in ΔEDSS with respect to full analysis dataset)” value (Progressive MS, T(diag) > 3 Y) was 39%, the “ΔEDSS (between group difference, treatment-effect vs placebo)” value (Progressive MS, T(diag) > 3 Y) was −0.138 and the “LSM EDSS, MAS (overall EDSS change from baseline)” value (Progressive MS, T(diag) > 4 Y) was −0.053. The “R % (relative difference in ΔEDSS with respect to full analysis dataset)” value (Progressive MS, T(diag) > 4 Y) was 48%, the “ΔEDSS (between group difference, treatment-effect vs placebo)” value (Progressive MS, T(diag) > 4 Y) was −0.147 and the “LSM EDSS, MAS (overall EDSS change from baseline)” value (Progressive MS, T(diag) ≤ 1 Y) was −0.099.
